Molecules are shown by their SMILES.

The target of experiment [1] is T1, KRAS(G12C) (Homo sapiens, UniProt P01116, G12C). As to the kind of experiment: KRAS(G12C)/SOS1 homogeneous time-resolved fluorescence (HTRF) assay. Also noted: purchased Cisbio 63ADK000CB16PEG. To be noted: absence of GTP, 4° C. for 3 hr, read-out: KRAS (G12C) binding. A digest of the protocol:
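Three-hour incubation at 4 °C of 3-fold compound dilutions (lowest 1.02 nM) with KRAS(G12C), SOS1 and detection reagents, GTP absent. Disruption of the KRAS(G12C)/SOS1 complex detected by time-resolved fluorescence.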
A general note: TR-FRET usually uses a lanthanide donor and a delayed reading to cut background.

Experiment [2] relates to MIA PaCa-2 human pancreatic carcinoma. The experiment is described as follows: MIA PaCa-2 CCK-8 proliferation assay. The experiment is classed as cell-based. To be noted: Homo sapiens, MIA PaCa-2, 72 h, MIA PaCa-2 cells. A digest of the protocol:
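Three KRAS(G12C) lines are used, MIA PaCa-2 at two mutant copies and the NSCLC lines NCI-H358 and NCI-H23 at one. Each compound is titrated 3-fold from 20 μM to 1.02 nM, and proliferation is scored by CCK-8.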
For orientation: Formazan colour is commonly taken as a measure of viable cells.

For experiment [3], the target named is T2, HSP90a protein (Homo sapiens, UniProt P07900).
T2 construct: purchased BPS Bioscience 50298
The experiment is described as follows: HSP90α-binding fluorescent polarization (FP) assay, BODIPY-labeled RNK04010 probe. To be noted: FP competition with RNK04010 (BODIPY-labeled), 5 nM, 300 min at 25° C. A digest of the protocol:
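Binding was scored by fluorescence polarization after adding N-terminal HSP90a to wells holding probe and compound, with compound tested from 20 μM to 5.2 nM. Probe-dependent times at 25° C were 120 min for FITC-geldanamycin and 300 min for RNK04010-BODIPY, both at 5 nM final.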

Experiment [4] addresses T1, KRAS(G12C). The experiment is described as follows: KRAS(G12C) Western blot protein degradation assay in LU65A cells. It counts as cell-based. Also noted: LU65A human lung cancer cell line, which expresses KRAS(G12C); host or cells: LU65A. Conditions: 6 hr. The method, boiled down: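 KRAS levels read by fluorescent Western blot (β-actin as reference) on BCA-normalized lysates. Exposure to a compound concentration range at 37 °C lasted 6 hr in LU65A and 48 hr in MIA PaCa-2; DC50 taken as half-maximal degradation concentration.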

T1 sequence (P01116 1-188 isoform P01116-2 G12C): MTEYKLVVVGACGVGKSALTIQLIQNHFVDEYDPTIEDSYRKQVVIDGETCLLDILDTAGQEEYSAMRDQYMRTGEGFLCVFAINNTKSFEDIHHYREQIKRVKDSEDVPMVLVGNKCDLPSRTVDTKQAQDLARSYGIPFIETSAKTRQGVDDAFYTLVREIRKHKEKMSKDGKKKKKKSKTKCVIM

On to `C=CC(=O)N1CCN(c2nc(OCCN3CCN(C(=O)C4CCN(Cc5ccc(-n6c(O)nnc6-c6cc(C(C)C)c(O)cc6O)cc5)CC4)CC3)nc3c2CCN(c2cccc4cccc(Cl)c24)C3)C[C@@H]1CC#N` [Compound 192, (S)-2-(1-acryloyl-4-(7-(8-chloronaphthalen-1-yl)-2-(2-(4-(1-(4-(3-(2,4-dihydroxy-5-isopropylphenyl)-5-hydroxy-4H-1,2,4-triazol-4-yl)benzyl)piperidine-4-carbonyl)piperazin-1-yl)ethoxy)-5,6,7,8-tetrahydropyrido[3,4-d]pyrimidin-4-yl)piperazin-2-yl)acetonitrile, trifluoroacetic acid], for which the IC50 in experiment [1] and in experiment [3] was under 100 nM in each case. The concentration for a half-maximal effect (EC50) (commonly the midpoint of the concentration-response curve) in experiment [2] was in the range of 100 to 1000 nM. In addition, the DC50 (commonly the concentration at which degradation of the target reaches its halfway point) in experiment [4] was in the range of 100 to 1000 nM.
As for `C=CC(=O)N1CCN(c2nc(OCCN3CCN(C(=O)C4CCN(Cc5ccc(-n6c(C(N)=O)nnc6-c6cc(C(C)C)c(O)cc6O)cc5)CC4)CC3)nc3c2CCN(c2cccc4cccc(Cl)c24)C3)C[C@@H]1CC#N` [Compound 193, (S)-4-(4-((4-(4-(2-((4-(4-acryloyl-3-(cyanomethyl)piperazin-1-yl)-7-(8-chloronaphthalen-1-yl)-5,6,7,8-tetrahydropyrido[3,4-d]pyrimidin-2-yl)oxy)ethyl)piperazine-1-carbonyl)piperidin-1-yl)methyl)phenyl)-5-(2,4-dihydroxy-5-isopropylphenyl)-4H-1,2,4-triazole-3-carboxamide], the IC50 in experiment [1] and in experiment [3] was under 100 nM each time. In experiment [2], this molecule returned an EC50 of 100 to 1000 nM. The same molecule showed a half-maximal degradation concentration (DC50) in experiment [4] of 100 to 1000 nM.
Regarding `C=CC(=O)N1CCN(c2nc(OCCN3CCN(C(=O)C4CCN(Cc5ccc(-n6c(C(=O)NCC(F)(F)F)nnc6-c6cc(C(C)C)c(O)cc6O)cc5)CC4)CC3)nc3c2CCN(c2cccc4cccc(Cl)c24)C3)C[C@@H]1CC#N` [Compound 206, (S)-4-(4-((4-(4-(2-((4-(4-acryloyl-3-(cyanomethyl)piperazin-1-yl)-7-(8-chloronaphthalen-1-yl)-5,6,7,8-tetrahydropyrido[3,4-d]pyrimidin-2-yl)oxy)ethyl)piperazine-1-carbonyl)piperidin-1-yl)methyl)phenyl)-5-(2,4-dihydroxy-5-isopropylphenyl)-N-(2,2,2-trifluoroethyl)-4H-1,2,4-triazole-3-carboxamide, trifluoroacetic acid], the IC50 in experiment [1] was 100 to 1000 nM; in experiment [3], under 100 nM. The molecule also gave a half-maximal effective concentration (EC50) in experiment [2] of 100 to 1000 nM. Further, the DC50 in experiment [4] was over 1000 nM.
As for `C=CC(=O)N1CCN(c2nc(OCCN3CCN(Cc4ccc(-n5c(O)nnc5-c5cc(C)c(O)cc5O)cc4)CC3)nc3c2CCN(c2cccc4cccc(Cl)c24)C3)C[C@@H]1CC#N` [Compound 213, (S)-2-(1-acryloyl-4-(7-(8-chloronaphthalen-1-yl)-2-(2-(4-(4-(3-(2,4-dihydroxy-5-methylphenyl)-5-hydroxy-4H-1,2,4-triazol-4-yl)benzyl)piperazin-1-yl)ethoxy)-5,6,7,8-tetrahydropyrido[3,4-d]pyrimidin-4-yl)piperazin-2-yl)acetonitrile], the results for the IC50 in experiment [1] and in experiment [3] were 100 to 1000 nM and under 100 nM, respectively. For the same molecule, in experiment [2], the EC50 is over 1000 nM. In experiment [4], this molecule gave a DC50 of over 1000 nM.
Consider `C=CC(=O)N1CCN(c2nc(OCC3CN(C(=O)C4CCN(Cc5ccc(-n6c(C(=O)NCC(F)(F)F)nnc6-c6cc(C)c(O)cc6O)cc5)CC4)C3)nc3c2CCN(c2cccc4cccc(Cl)c24)C3)C[C@@H]1CC#N` [Compound 219, (S)-4-(4-((4-(3-(((4-(4-acryloyl-3-(cyanomethyl)piperazin-1-yl)-7-(8-chloronaphthalen-1-yl)-5,6,7,8-tetrahydropyrido[3,4-d]pyrimidin-2-yl)oxy)methyl)azetidine-1-carbonyl)piperidin-1-yl)methyl)phenyl)-5-(2,4-dihydroxy-5-methylphenyl)-N-(2,2,2-trifluoroethyl)-4H-1,2,4-triazole-3-carboxamide], for which the IC50 in experiment [1] is 100 to 1000 nM; in experiment [3] it was under 100 nM. Also, in experiment [2], the EC50 was over 1000 nM. Also, the 50% degradation concentration (DC50) in experiment [4] was over 1000 nM.
For `C=CC(=O)N1CCN(c2nc(OCC3CN(C(=O)C4CCN(Cc5ccc(-n6c(C(=O)NCC(F)(F)F)nnc6-c6cc(C(C)C)c(O)cc6O)cc5)CC4)C3)nc3c2CCN(c2cccc4cccc(Cl)c24)C3)C[C@@H]1CC#N` [Compound 220, (S)-4-(4-((4-(3-(((4-(4-acryloyl-3-(cyanomethyl)piperazin-1-yl)-7-(8-chloronaphthalen-1-yl)-5,6,7,8-tetrahydropyrido[3,4-d]pyrimidin-2-yl)oxy)methyl)azetidine-1-carbonyl)piperidin-1-yl)methyl)phenyl)-5-(2,4-dihydroxy-5-isopropylphenyl)-N-(2,2,2-trifluoroethyl)-4H-1,2,4-triazole-3-carboxamide], the IC50 was 100 to 1000 nM in experiment [1] and under 100 nM in experiment [3]. In experiment [2], this molecule had an EC50 of 100 to 1000 nM. In addition, in experiment [4], the DC50 is over 1000 nM.
Regarding `C=CC(=O)N1CCN(c2nc(OCCN3CCN(C(=O)C4CCN(Cc5ccc(-n6c(O)nnc6-c6cc(C)c(O)cc6O)cc5)CC4)CC3)nc3c2CCN(c2cccc4cccc(Cl)c24)C3)C[C@@H]1CC#N` [Compound 223, (S)-2-(1-acryloyl-4-(7-(8-chloronaphthalen-1-yl)-2-(2-(4-(1-(4-(3-(2,4-dihydroxy-5-methylphenyl)-5-hydroxy-4H-1,2,4-triazol-4-yl)benzyl)piperidine-4-carbonyl)piperazin-1-yl)ethoxy)-5,6,7,8-tetrahydropyrido[3,4-d]pyrimidin-4-yl)piperazin-2-yl)acetonitrile], the IC50 in experiment [1] and in experiment [3] was under 100 nM throughout. For the same molecule, in experiment [2], the EC50 is over 1000 nM. The molecule also had a DC50 in experiment [4] of 100 to 1000 nM.
For the molecule `C=C(F)C(=O)N1CCN(c2nc(OCCN3CCN(C(=O)C4CCN(Cc5ccc(-n6c(O)nnc6-c6cc(C(C)C)c(O)cc6O)cc5)CC4)CC3)nc3c2CCN(c2cccc4cccc(Cl)c24)C3)C[C@@H]1CC#N` [Compound 224, (S)-2-(4-(7-(8-chloronaphthalen-1-yl)-2-(2-(4-(1-(4-(3-(2,4-dihydroxy-5-isopropylphenyl)-5-hydroxy-4H-1,2,4-triazol-4-yl)benzyl)piperidine-4-carbonyl)piperazin-1-yl)ethoxy)-5,6,7,8-tetrahydropyrido[3,4-d]pyrimidin-4-yl)-1-(2-fluoroacryloyl)piperazin-2-yl)acetonitrile], the values for the IC50 in experiment [1] and in experiment [3] were over 1000 nM and under 100 nM, respectively. In addition, in experiment [2], the concentration for a half-maximal effect (EC50) lay within 100 to 1000 nM. The molecule further returned a DC50 in experiment [4] of over 1000 nM.
Regarding `C=CC(=O)N1CCN(c2nc(OC[C@@H]3CC[C@H](CN4CCN(Cc5ccc(-n6c(O)nnc6-c6cc(C)c(O)cc6O)cc5)CC4)N3C)nc3c2CCN(c2cccc4cccc(Cl)c24)C3)C[C@@H]1CC#N` [Compound 227, 2-[(2S)-4-[7-(8-chloronaphthalen-1-yl)-2-{[(2S,5R)-5-{[4-({4-[3-(2,4-dihydroxy-5-methylphenyl)-5-hydroxy-1,2,4-triazol-4-yl]phenyl}methyl)piperazin-1-yl]methyl}-1-methylpyrrolidin-2-yl]methoxy}-5H,6H,8H-pyrido[3,4-d]pyrimidin-4-yl]-1-(prop-2-enoyl)piperazin-2-yl]acetonitrile], the IC50 in experiment [1] and in experiment [3] was under 100 nM throughout. The concentration for a half-maximal effect (EC50) in experiment [2] lay in the range of 100 to 1000 nM. Moreover, the half-maximal degradation concentration (DC50) in experiment [4] is over 1000 nM.
Consider `C=CC(=O)N1CCN(c2nc(OC[C@@H]3C[C@H](N4CCC5(CCN(Cc6ccc(-n7c(O)nnc7-c7cc(C)c(O)cc7O)cc6)CC5)CC4)CN3C)nc3c2CCN(c2cccc4cccc(Cl)c24)C3)C[C@@H]1CC#N` [Compound 228, 2-[(2S)-4-[7-(8-chloronaphthalen-1-yl)-2-{[(2S,4S)-4-[9-({4-[3-(2,4-Dihydroxy-5-methylphenyl)-5-hydroxy-1,2,4-triazol-4-yl]phenyl}methyl)-3,9-diazaspiro[5.5]undecan-3-yl]-1-methylpyrrolidin-2-yl]methoxy}-5H,6H,8H-pyrido[3,4-d]pyrimidin-4-yl]-1-(prop-2-enoyl)piperazin-2-yl]acetonitrile], for which the IC50 in experiment [1] and in experiment [3] was under 100 nM in each case. The molecule also displayed an EC50 in experiment [2] of 100 to 1000 nM. The half-maximal degradation concentration (DC50) in experiment [4] is over 1000 nM.
Consider `C=CC(=O)N1CCN(c2nc(OC[C@@H]3C[C@H](C(=O)N[C@@H]4CCCN(Cc5ccc(-n6c(O)nnc6-c6cc(C(C)C)c(O)cc6O)cc5)C4)CN3C)nc3c2CCN(c2cccc4cccc(Cl)c24)C3)C[C@@H]1CC#N` [Compound 229, (3S,5S)-5-({[7-(8-chloronaphthalen-1-yl)-4-[(3S)-3-(cyanomethyl)-4-(prop-2-enoyl)piperazin-1-yl]-5H,6H,8H-pyrido[3,4-d]pyrimidin-2-yl]oxy}methyl)-N-[(3R)-1-({4-[3-(2,4-dihydroxy-5-isopropylphenyl)-5-hydroxy-1,2,4-triazol-4-yl]phenyl}methyl)piperidin-3-yl]-1-methylpyrrolidine-3-carboxamide], for which the IC50 in experiment [1] and in experiment [3] was under 100 nM in each case. Moreover, the EC50 in experiment [2] was over 1000 nM. Further, the DC50 in experiment [4] was over 1000 nM.

(Values after patent publication US20230391772A1, “METHODS AND COMPOSITIONS FOR TARGETED PROTEIN DEGRADATION” (Ranok Therapeutics (Hangzhou) Co. Ltd., priority 2020, published 2023).)
